Each block holds one compound with its values, some of them ahead of it.
Assays:
[1] = target: T1, Ks-Amt5 (ammonium sensor histidine kinase, HK domain) (Candidatus Kuenenia stuttgartensis, UniProt Q1Q357); test: SAXS, compaction of the HK domain on nucleotide addition; type: binding
T1 construct: gene amtb; Ks-Amt5^426–679 (soluble HK domain)

[2] = target: T1, Ks-Amt5 (ammonium sensor histidine kinase, HK domain); test: isothermal titration calorimetry (also SAXS and […] autophosphorylation); type: binding
[3] = target: T1, Ks-Amt5 (ammonium sensor histidine kinase, HK domain); test: isothermal titration calorimetry; type: binding
[4] = target: T2, Ks-Amt5 (ammonium sensor/transducer) (Candidatus Kuenenia stuttgartensis, UniProt Q1Q357); test: microscale thermophoresis (weak; no electrogenic response); type: binding; set-up: gene amtb; Ks-Amt5
T2 sequence (Q1Q357 1-679): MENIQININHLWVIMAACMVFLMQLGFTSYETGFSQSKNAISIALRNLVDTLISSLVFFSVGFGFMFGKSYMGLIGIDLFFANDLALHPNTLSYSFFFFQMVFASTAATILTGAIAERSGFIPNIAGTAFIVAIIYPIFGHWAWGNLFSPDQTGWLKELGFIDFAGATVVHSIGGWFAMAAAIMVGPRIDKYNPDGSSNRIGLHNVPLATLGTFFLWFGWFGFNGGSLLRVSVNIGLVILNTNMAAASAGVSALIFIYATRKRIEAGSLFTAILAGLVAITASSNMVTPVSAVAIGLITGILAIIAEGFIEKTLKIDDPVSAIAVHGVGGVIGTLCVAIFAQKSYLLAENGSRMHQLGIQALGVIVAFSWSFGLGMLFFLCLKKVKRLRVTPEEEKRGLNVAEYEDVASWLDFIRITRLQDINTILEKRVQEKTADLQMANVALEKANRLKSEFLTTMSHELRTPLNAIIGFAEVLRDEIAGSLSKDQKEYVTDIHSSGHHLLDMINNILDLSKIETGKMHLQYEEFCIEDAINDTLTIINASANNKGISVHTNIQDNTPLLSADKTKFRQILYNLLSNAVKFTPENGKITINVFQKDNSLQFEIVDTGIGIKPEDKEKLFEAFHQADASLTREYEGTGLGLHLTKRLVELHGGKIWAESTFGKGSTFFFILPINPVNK

[5] = target: T2, Ks-Amt5 (ammonium sensor/transducer); test: biochemical; set-up: gene amtb
[6] = target: Ks-Amt5 (kust_3690), full-length ammonium sensor histidine kinase (Candidatus Kuenenia stuttgartiensis); test: SAXS; full-length Ks-Amt5 in 0.09 % CYMAL-5; batch or SEC-SAXS (Superdex 200 10/300); buffer C with 5 % glycerol; 20 °C; molecular weight from forward scattering I(0)
[7] = target: Ks-Amt5 (kust_3690), full-length ammonium sensor histidine kinase (Candidatus Kuenenia stuttgartiensis); test: SEC; Superdex 200 26/60; buffer C (20 mM HEPES/NaOH pH 7.5 or 20 mM Tris/HCl pH 8.0, 100 mM NaCl) with 5-10 % glycerol and detergent; 4 °C; self-association of the detergent-solubilized protein
[8] = target: Ks-Amt5 (kust_3690), full-length ammonium sensor histidine kinase (Candidatus Kuenenia stuttgartiensis); test: crystal structure; full-length Ks-Amt5; space group P6_(3); 1.98 Å; only the Amt domain (residues 1-405) modelled, HK domain disordered

T1 sequence (Q1Q357 entry or part of it): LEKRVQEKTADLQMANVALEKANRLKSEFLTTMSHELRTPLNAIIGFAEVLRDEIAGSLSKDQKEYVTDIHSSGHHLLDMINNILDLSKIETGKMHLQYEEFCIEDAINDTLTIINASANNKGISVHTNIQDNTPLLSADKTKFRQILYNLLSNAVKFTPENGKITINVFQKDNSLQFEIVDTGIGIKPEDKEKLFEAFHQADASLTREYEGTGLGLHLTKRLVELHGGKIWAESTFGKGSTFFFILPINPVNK

Compound: Nc1ncnc2c1ncn2[C@@H]1O[C@H](COP(=O)(O)OP(=O)(O)CP(=O)(O)O)[C@@H](O)[C@H]1O [APPCP]
SAXS, compaction of the HK domain on nucleotide addition [1]: change toward a more compact and less-flexible structure when either APPCP or ATP are added to the HK domain

Compound: Nc1ncnc2c1ncn2[C@@H]1O[C@H](COP(=O)(O)OP(=O)(O)OP(=O)(O)O)[C@@H](O)[C@H]1O [ATP]
Kd [2]: 11.16 ± 0.03 µM

Compound: Nc1ncnc2c1ncn2[C@@H]1O[C@H](CO[P@](=O)(O)O[P@](=O)(O)O[P@@](=O)(O)S)[C@@H](O)[C@H]1O [ATPγS]
Kd [3]: 36.74 ± 0.05 µM

Compound: CN [MA, methylammonium]
Kd [4]: 2350 ± 440 µM

Results, then the compound that gave them:

Kd [5]: 41 ± 24 µM
Compound: N [NH4^+]

stoichiometry N [6]: 3 | stoichiometry N [7]: 3 | stoichiometry N [8]: 3
Compound: Ks-Amt5 (kust_3690), full-length ammonium sensor histidine kinase (natural protein)

Reference: PMC5764959, “Signaling ammonium across membranes through an ammonium sensor histidine kinase” (Nature Communications, 2018)
